Consider two compounds from patent US20110177970A1, “METHODS FOR PREDICTING OR MONITORING WHETHER A PATIENT AFFECTED BY A CANCER IS RESPONSIVE TO A TREATMENT WITH A MOLECULE OF THE TAXOID FAMILY” (Inserm (Institut National de la Sante et de la Recherche …, priority 2008, published 2011).

SMILES strings stand for the structures.

In test [1] the test system is 3B1 clone (clonally-derived IGR-CaP1 cells). The test is described as follows: WST1 cell proliferation assay, cytotoxic effect of docetaxel, clone 3B1. Type of test: cell-based, human. The source says:
(§1) The data represent the mean of three different experiments, the error bars represent the SEM.
(§2) Several clonally-derived cells were obtained from the parental IGR-CaP1 cells by limit dilutions.
(Formazan colour is commonly taken as a measure of viable cells.)

The test system of test [2] is patients treated with docetaxel. As to conditions: from the beginning or in a secondary way; cited from earlier work.
Another test concerns parental IGR-CaP1 cells. Put plainly: WST1 cell proliferation assay, cytotoxic effect of docetaxel, parental cells. Type of test: cell-based, human. As to conditions: docetaxel 1.25 nM to 50 nM, 72 h.
Description: as §1, §2

Test [3] has as its system breast cancer metastatic tumours. The conditions noted are these: cited from earlier work.
Test [4] has as its system 3A11 clone (clonally-derived IGR-CaP1 cells). Put plainly: WST1 cell proliferation assay, cytotoxic effect of docetaxel, clone 3A11. Type of test: cell-based, human.
Description: as §1, §2

The subject of test [5] is docetaxel resistant cells. As to conditions: cited from earlier work.

Regarding `CC(=O)O[C@@]12CO[C@@H]1C[C@H](O)[C@@]1(C)C(=O)[C@H](O)C3=C(C)[C@@H](OC(=O)[C@H](O)[C@@H](NC(=O)OC(C)(C)C)c4ccccc4)C[C@@](O)([C@@H](OC(=O)c4ccccc4)[C@H]21)C3(C)C` [docetaxel], the “effect on proliferation compared to parental IGR-CaP1 cells” value in test [1] (3B1 clone vs parental, p<0.001) is on record as “significantly lower extent”; in test [4] (3A11 clone vs parental, p<0.001), “significantly lower extent”. In addition, the “cell proliferation (WST1)” value in test [1] (3B1 clone, docetaxel 1.25 nM to 50 nM, 72 h) is on record as “decreased cell proliferation in a dose-dependent manner”; in the test with parental IGR-CaP1 cells, “decreased cell proliferation in a dose-dependent manner”; in test [4] (3A11 clone, docetaxel 1.25 nM to 50 nM, 72 h) it was “decreased cell proliferation in a dose-dependent manner”. For the same compound, in test [2], the “patients who develop a resistance to the chemotherapy” value is listed as “almost half of the patients”. In test [3], the “metastatic tumours that respond” value is recorded as 30 to 50%.
As for `Oc1ccc(C=Cc2cc(O)cc(O)c2)cc1` [resveratrol], in test [5], the apoptosis entry is “increase of apoptosis” and the expression of clusterin entry is reported as “decreased expression of clusterin”.
